Measurements as given in patent US11213030B2, “4-(3,4-dihydronaphth-1-yl or 2H-chromen-4-yl)-5-hydroxy-2H-pyradizin-3-ones as herbicides” (FMC Corporation, priority 2017, dated 2022).

Key:
Format in all cases: in vivo
[1] = tested on: galium (catchweed bedstraw, Galium aparine); test: Test A postemergence, galium; conditions: 0 to 100 scale
Source text: (§1) Seeds of plant species selected from barnyardgrass (Echinochloa crus-galli), kochia (Kochia scoparia), ragweed (common ragweed, Ambrosia elatior), ryegrass, It. (Italian ryegrass, Lolium multiflorum), foxtail, green (green foxtail, Setaria viridis), and pigweed (Amaranthus retroflexus) were planted into a blend of loam soil and sand and treated preemergence with a directed soil spray using test chemicals formulated in a non-phytotoxic solvent mixture which included a surfactant. At the same time, plants selected from these weed species and also wheat (Triticum aestivum), corn (Zea mays), blackgrass (Alopecurus myosuroides), and galium (catchweed bedstraw, Galium aparine) were planted in pots containing the same blend of loam soil and sand and treated with postemergence applications of test chemicals formulated in the same manner. Plants ranged in height from 2 to 10 cm and were in the one- to two-leaf stage for the postemergence treatment. Treated plants and untreated controls were maintained in a greenhouse for approximately 10 d, after which time all treated plants were compared to untreated controls and visually evaluated for injury. Plant response ratings, summarized in Table A, are based on a 0 to 100 scale where 0 is no effect and 100 is complete control. A dash (-) response means no test result.

rice (Oryza sativa) = test: Test B flooded paddy test, rice; conditions: Flood, 250 g ai/ha applied to paddy water, 2-leaf stage, 13 to 15 d; scale of 0 to 100 where 0 is no effect and 100 is complete control
Procedure: (§2) Plant species in the flooded paddy test selected from rice (Oryza sativa), sedge, umbrella (small-flower umbrella sedge, Cyperus difformis), ducksalad (Heteranthera limosa), and barnyardgrass (Echinochloa crus-galli) were grown to the 2-leaf stage for testing. At the time of treatment, test pots were flooded to 3 cm above the soil surface, treated by application of test compounds directly to the paddy water, and then maintained at that water depth for the duration of the test. Treated plants and controls were maintained in a greenhouse for 13 to 15 d, after which time all species were compared to controls and visually evaluated. Plant response ratings, summarized in Table B, are based on a scale of 0 to 100 where 0 is no effect and 100 is complete control. A dash (-) response means no test result.

kochia (Kochia scoparia) [2] = test: Test A preemergence, kochia; conditions: 0 to 100 scale
Source text: as §1

[3] = tested on: ryegrass, It. (Italian ryegrass, Lolium multiflorum); test: Test A postemergence, Italian ryegrass; conditions: 0 to 100 scale; for Plant response rating, Ryegrass, Italian: 500 g ai/ha
Source text: as §1

[4] = tested on: blackgrass (Alopecurus myosuroides); test: Test A postemergence, blackgrass; conditions: 0 to 100 scale
Source text: as §1

[5] = tested on: ragweed (common ragweed, Ambrosia elatior); test: Test A preemergence, ragweed; conditions: 0 to 100 scale
Source text: as §1

[6] = tested on: ducksalad (Heteranthera limosa); test: Test B flooded paddy test, ducksalad; conditions: Flood, 250 g ai/ha applied to paddy water, 2-leaf stage, 13 to 15 d; scale of 0 to 100 where 0 is no effect and 100 is complete control
Procedure: as §2

[7] = tested on: sedge, umbrella (small-flower umbrella sedge, Cyperus difformis); test: Test B flooded paddy test, umbrella sedge; conditions: Flood, 250 g ai/ha applied to paddy water, 2-leaf stage, 13 to 15 d; scale of 0 to 100 where 0 is no effect and 100 is complete control
Procedure: as §2

[8] = tested on: barnyardgrass (Echinochloa crus-galli); test: Test B flooded paddy test, barnyardgrass; conditions: Flood, 250 g ai/ha applied to paddy water, 2-leaf stage, 13 to 15 d; scale of 0 to 100 where 0 is no effect and 100 is complete control
Procedure: as §2

[9] = tested on: wheat (Triticum aestivum); test: Test A postemergence, wheat; conditions: 0 to 100 scale
Source text: as §1

kochia (Kochia scoparia) [10] = test: Test A postemergence, kochia; conditions: 0 to 100 scale
Source text: as §1

[11] = tested on: pigweed (Amaranthus retroflexus); test: Test A postemergence, pigweed; conditions: 0 to 100 scale
Source text: as §1

Foxtail, Giant [12] = test: Test A preemergence, giant foxtail; conditions: 0 to 100 scale
[13] = tested on: barnyardgrass (Echinochloa crus-galli); test: Test A postemergence, barnyardgrass; conditions: 0 to 100 scale
Source text: as §1

[14] = tested on: ragweed (common ragweed, Ambrosia elatior); test: Test A postemergence, ragweed; conditions: 0 to 100 scale
Source text: as §1

corn (Zea mays) = test: Test A postemergence, corn; conditions: 0 to 100 scale
Source text: as §1

[15] = tested on: pigweed (Amaranthus retroflexus); test: Test A preemergence, pigweed; conditions: 0 to 100 scale
Source text: as §1

[16] = tested on: barnyardgrass (Echinochloa crus-galli); test: Test A preemergence, barnyardgrass; conditions: 0 to 100 scale
Source text: as §1

Foxtail, Giant [17] = test: Test A postemergence, giant foxtail; conditions: 0 to 100 scale
[18] = tested on: ryegrass, It. (Italian ryegrass, Lolium multiflorum); test: Test A preemergence, Italian ryegrass; conditions: 0 to 100 scale
Source text: as §1

[19] = tested on: foxtail, green (green foxtail, Setaria viridis); test: Test A preemergence, green foxtail; conditions: 31 g ai/ha, 0 to 100 scale
Source text: as §1

| Compound | Plant response rating, Galium ([1]; 125 g ai/ha) | Plant response rating, Galium ([1]; 500 g ai/ha) | Plant response rating, Rice (rice (Oryza sativa)) | Plant response rating, Kochia (kochia (Kochia scoparia) [2]; 125 g ai/ha) | Plant response rating, Blackgrass ([4]; 125 g ai/ha) | Plant response rating, Ragweed ([5]; 125 g ai/ha) | Plant response rating, Ducksalad [6] | Plant response rating, Sedge, Umbrella [7] | Plant response rating, Barnyardgrass [8] | Plant response rating, Wheat ([9]; 125 g ai/ha) | Plant response rating, Kochia (kochia (Kochia scoparia) [10]; 125 g ai/ha) | Plant response rating, Pigweed ([11]; 125 g ai/ha) | Plant response rating, Foxtail, Giant (Foxtail, Giant [12]; 125 g ai/ha) | Plant response rating, Barnyardgrass ([13]; 125 g ai/ha) | Plant response rating, Ragweed ([14]; 125 g ai/ha) | Plant response rating, Corn (corn (Zea mays); 125 g ai/ha) | Plant response rating, Pigweed ([15]; 125 g ai/ha) | Plant response rating, Barnyardgrass ([16]; 125 g ai/ha) | Plant response rating, Foxtail, Giant (Foxtail, Giant [17]; 125 g ai/ha) | Plant response rating, Ryegrass, It. ([18]; 125 g ai/ha) | further results |
| --- | --- | --- | --- | --- | --- | --- | --- | --- | --- | --- | --- | --- | --- | --- | --- | --- | --- | --- | --- | --- | --- |
| COc1c(C)nn(C)c(=O)c1C1=CCC(C)(C)c2ccccc21 [Compound 6] | 0 | 0 | 0 | 0 | 0 | 0 | 0 | 0 | 0 | 0 | 0 | 0 | 0 | 0 | 0 | 0 | 0 | 0 | 0 | 0 | Plant response rating, Kochia (kochia (Kochia scoparia) [2]; 500 g ai/ha): 40; Plant response rating, Ryegrass, Italian [3]: 0; Plant response rating, Blackgrass ([4]; 500 g ai/ha): 20; Plant response rating, Ragweed ([5]; 500 g ai/ha): 0; Plant response rating, Wheat ([9]; 500 g ai/ha): 0; Plant response rating, Kochia (kochia (Kochia scoparia) [10]; 500 g ai/ha): 0; Plant response rating, Pigweed ([11]; 500 g ai/ha): 0; Plant response rating, Foxtail, Giant (Foxtail, Giant [12]; 500 g ai/ha): 0; Plant response rating, Barnyardgrass ([13]; 500 g ai/ha): 0; Plant response rating, Ragweed ([14]; 500 g ai/ha): 20; Plant response rating, Corn (corn (Zea mays); 500 g ai/ha): 0; Plant response rating, Pigweed ([15]; 500 g ai/ha): 0; Plant response rating, Barnyardgrass ([16]; 500 g ai/ha): 30; Plant response rating, Foxtail, Giant (Foxtail, Giant [17]; 500 g ai/ha): 0; Plant response rating, Ryegrass, It. ([18]; 500 g ai/ha): 0 |
| Cc1nn(C)c(=O)c(C2=CCC(C)(C)c3ccccc32)c1O [Compound 7] | 50 | 70 | 0 | 0 | 10 | 0 | 0 | 0 | 0 | 0 | 30 | 80 | 0 | 10 | 0 | 0 | 0 | 0 | 0 | 0 | Plant response rating, Kochia (kochia (Kochia scoparia) [2]; 500 g ai/ha): 0; Plant response rating, Ryegrass, It. ([3]; 125 g ai/ha): 30; Plant response rating, Ryegrass, Italian [3]: 80; Plant response rating, Blackgrass ([4]; 500 g ai/ha): 10; Plant response rating, Ragweed ([5]; 500 g ai/ha): 0; Plant response rating, Wheat ([9]; 500 g ai/ha): 0; Plant response rating, Kochia (kochia (Kochia scoparia) [10]; 500 g ai/ha): 70; Plant response rating, Pigweed ([11]; 500 g ai/ha): 90; Plant response rating, Foxtail, Giant (Foxtail, Giant [12]; 500 g ai/ha): 0; Plant response rating, Barnyardgrass ([13]; 500 g ai/ha): 30; Plant response rating, Ragweed ([14]; 500 g ai/ha): 70; Plant response rating, Corn (corn (Zea mays); 500 g ai/ha): 10; Plant response rating, Pigweed ([15]; 500 g ai/ha): 10; Plant response rating, Barnyardgrass ([16]; 500 g ai/ha): 0; Plant response rating, Foxtail, Giant (Foxtail, Giant [17]; 500 g ai/ha): 10; Plant response rating, Ryegrass, It. ([18]; 500 g ai/ha): 10 |
| CC1=C(c2c(O)c(Cl)nn(C)c2=O)c2cc(C)ccc2CC1 [Compound 8] | 90 | – | 0 | 10 | 30 | 30 | 90 | 95 | 60 | 0 | 50 | 100 | 70 | 80 | 100 | 20 | 100 | 60 | 80 | 10 | Plant response rating, Galium ([1]; 31 g ai/ha): 90; Plant response rating, Ryegrass, It. ([3]; 31 g ai/ha): 40; Plant response rating, Ryegrass, It. ([3]; 125 g ai/ha): 80; Plant response rating, Blackgrass ([4]; 31 g ai/ha): 20; Plant response rating, Ragweed ([5]; 31 g ai/ha): 0; Plant response rating, Foxtail, Green [19]: 0; Plant response rating, Wheat ([9]; 31 g ai/ha): 0; Plant response rating, Kochia (kochia (Kochia scoparia) [10]; 31 g ai/ha): 40; Plant response rating, Pigweed ([11]; 31 g ai/ha): 90; Plant response rating, Barnyardgrass ([13]; 31 g ai/ha): 50; Plant response rating, Ragweed ([14]; 31 g ai/ha): 80; Plant response rating, Corn (corn (Zea mays); 31 g ai/ha): 0; Plant response rating, Pigweed ([15]; 31 g ai/ha): 10; Plant response rating, Barnyardgrass ([16]; 31 g ai/ha): 0; Plant response rating, Foxtail, Giant (Foxtail, Giant [17]; 31 g ai/ha): 60; Plant response rating, Ryegrass, It. ([18]; 31 g ai/ha): 0 |
